# Measured values as given in patent US10508085B2, “Compounds and methods for IDO and TDO modulation, and indications therefor” (Plexxikon Inc., priority 2016, dated 2019).
# Columns and labels:
# [1] = target: T1, human IDO (IDO1-expressing HEK293 cells) (Homo sapiens, UniProt P14902); test: Cell based kynurenine assay, IDO1-expressing HEK293 cell clones; conditions: IDO1-expressing HEK293 cells, 24 hours incubation; geometric mean; read-out: HEK293 IDO1 Kynurenine GMean IC50 (μM) (Cellular Assay)
# T1 construct: expressed in transfected cells
# T1 sequence (P14902 whole entry): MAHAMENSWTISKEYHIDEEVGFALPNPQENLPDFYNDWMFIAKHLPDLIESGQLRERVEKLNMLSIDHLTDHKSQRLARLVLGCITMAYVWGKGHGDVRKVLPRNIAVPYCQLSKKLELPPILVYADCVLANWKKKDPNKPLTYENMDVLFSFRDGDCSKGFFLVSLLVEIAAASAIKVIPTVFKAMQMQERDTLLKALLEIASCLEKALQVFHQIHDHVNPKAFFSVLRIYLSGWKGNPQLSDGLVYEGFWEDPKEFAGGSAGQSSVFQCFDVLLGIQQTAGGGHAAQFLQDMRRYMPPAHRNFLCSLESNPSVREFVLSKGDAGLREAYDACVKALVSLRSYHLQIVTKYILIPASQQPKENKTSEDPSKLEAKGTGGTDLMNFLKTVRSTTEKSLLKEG
# Procedure, shortened: (§1)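 Stably transfected HEK293 clones expressing human IDO1 or TDO (CMV promoter) were seeded at 2.5×10^4 cells/well and treated with serially diluted compounds for 24 h. Supernatant kynurenine was then measured, and % inhibition versus DMSO-treated cell and media-only controls was fitted by nonlinear regression to give IC50.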
# [2] = target: T2, human TDO (TDO-expressing HEK293 cells) (Homo sapiens, UniProt P48775); test: Cell based kynurenine assay, TDO-expressing HEK293 cell clones; conditions: TDO-expressing HEK293 cells, 24 hours incubation; geometric mean; read-out: HEK293 TDO Kynurenine GMean IC50 (μM) (Cellular Assay)
# T2 construct: expressed in transfected cells
# T2 sequence (P48775 whole entry): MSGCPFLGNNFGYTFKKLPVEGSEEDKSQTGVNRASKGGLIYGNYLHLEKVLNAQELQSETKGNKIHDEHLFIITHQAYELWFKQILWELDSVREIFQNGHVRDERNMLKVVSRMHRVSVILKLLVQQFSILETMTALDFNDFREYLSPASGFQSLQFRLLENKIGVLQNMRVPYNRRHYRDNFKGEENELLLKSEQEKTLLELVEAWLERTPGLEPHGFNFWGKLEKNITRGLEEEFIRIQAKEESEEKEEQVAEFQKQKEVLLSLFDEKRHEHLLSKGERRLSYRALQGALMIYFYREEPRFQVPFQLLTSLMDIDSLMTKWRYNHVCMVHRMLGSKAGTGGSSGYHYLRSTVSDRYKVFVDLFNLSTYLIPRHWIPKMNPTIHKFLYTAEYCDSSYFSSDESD
# Procedure, shortened: as §1
# [3] = target: T3, Human Indoleamine 2,3-dioxygenase (IDO) (Homo sapiens, UniProt P14902); test: Human IDO enzymatic assay (kynurenine level); assay type: biochemical; conditions: 6 nM IDO, 10 μM L-Trp; geometric mean; read-out: IDO1 GMean: IC50 (μM) (Biochemical Assay)
# T3 construct: His tag (N); made in house; host or cells: E. coli
# T3 sequence (P14902 whole entry): as the sequence (P14902 whole entry) above
# Procedure, shortened: (§2)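 N-terminally His-tagged enzymes expressed in E. coli were run in 50 mM sodium phosphate pH 6.5 with 10 mM ascorbate, catalase and Tween 20. IDO: 6 nM enzyme, 10 μM L-Trp, 5 μM methylene blue, 20 min RT. TDO: 1 nM enzyme, 350 μM L-Trp, 0.4 μM methylene blue, 70 min RT.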
# [4] = target: T4, Human Tryptophan 2,3-dioxygenase (TDO) (Homo sapiens, UniProt P48775); test: Human TDO enzymatic assay (kynurenine level); assay type: biochemical; conditions: 1 nM TDO, 350 μM L-Trp; geometric mean; read-out: TDO GMean: IC50 (μM) (Biochemical Assay)
# T4 construct: His tag (N); made in house; host or cells: E. coli
# T4 sequence (P48775 whole entry): as the sequence (P48775 whole entry) above
# Procedure, shortened: as §2
IC50 [1],IC50 [2],IC50 [3],IC50 [4],SMILES
0.0001 to 10 µM,0.0001 to 10 µM,0.0001 to 10 µM,0.0001 to 10 µM,"COC12CCC(C(O)c3cc(Cl)cc4cn[nH]c34)(CC1)CC2 (centres unmarked) [Compound P-0136, (5-chloro-1H-indazol-7-yl)(4-methoxybicyclo[2.2.2]octan-1-yl)methanol]"
0.0001 to 10 µM,0.0001 to 10 µM,0.0001 to 10 µM,0.0001 to 10 µM,"COC12CCC(C(O)c3c(F)c(Cl)cc4cn[nH]c34)(CC1)CC2 (centres unmarked) [Compound P-0137, (5-chloro-6-fluoro-1H-indazol-7-yl)(4-methoxybicyclo[2.2.2]octan-1-yl)methanol]"
0.0001 to 10 µM,0.0001 to 10 µM,0.0001 to 10 µM,0.0001 to 10 µM,"CC(=O)N1C[C@H]2CC[C@@H](C1)[C@H]2C(F)(F)C(O)c1c(F)c(Cl)cc2cn[nH]c12 (stereo partly drawn) [Compound P-0138, 1-((1R,5S,8s)-8-(2-(5-chloro-6-fluoro-1H-indazol-7-yl)-1,1-difluoro-2-hydroxyethyl)-3-azabicyclo[3.2.l]octan-3-yl)ethan-l-one]"
0.0001 to 10 µM,0.0001 to 10 µM,0.0001 to 10 µM,0.0001 to 10 µM,"CC(=O)N1C[C@H]2CC[C@@H](C1)[C@@H]2C(F)(F)C(O)c1c(F)c(Cl)cc2cn[nH]c12 (stereo partly drawn) [Compound P-0139, 1-((1R,5S,8r)-8-(2-(5-chloro-6-fluoro-1H-indazol-7-yl)-1,1-difluoro-2-hydroxyethyl)-3-azabicyclo[3.2.l]octan-3-yl)ethan-l-one]"
0.0001 to 10 µM,0.0001 to 10 µM,0.0001 to 10 µM,0.0001 to 10 µM,"COC(=O)N1CCC(C(F)(F)C(O)c2cc(Cl)cc3cn[nH]c23)CC1 (centres unmarked) [Compound P-0141, methyl 4-(2-(5-chloro-1H-indazol-7-yl)-1,1-difluoro-2-hydroxyethyl)piperidine-1-carboxylate]"
0.0001 to 10 µM,0.0001 to 10 µM,0.0001 to 10 µM,0.0001 to 10 µM,"CNC(=O)N1CCC(C(F)(F)C(O)c2cc(Cl)cc3cn[nH]c23)CC1 (centres unmarked) [Compound P-0142, 4-(2-(5-chloro-1H-indazol-7-yl)-1,1-difluoro-hydroxyethyl)-N-methylpiperidine-1-carboxamide]"
0.0001 to 10 µM,0.0001 to 10 µM,0.0001 to 10 µM,0.0001 to 10 µM,"O=C(C1CC1)N1CCC(C(F)(F)C(O)c2cc(Cl)cc3cn[nH]c23)CC1 (centres unmarked) [Compound P-0143, (4-(2-(5-chloro-1H-indazol-7-yl)-1,1-difluoro-2-hydroxyethyl)piperidin-1-yl)(cyclopropyl)methanone]"
0.0001 to 10 µM,0.0001 to 10 µM,0.0001 to 10 µM,0.0001 to 10 µM,"NC(=O)N1CCC(C(F)(F)C(O)c2cc(Cl)cc3cn[nH]c23)CC1 (centres unmarked) [Compound P-0144, 4-(2-(5-chloro-1H-indazol-7-yl)-1,1-difluoro-2-hydroxyethyl)piperidine-1-carboxamide]"
> 10 µM,0.0001 to 10 µM,0.0001 to 10 µM,0.0001 to 10 µM,"CC1(C(O)c2cc(Cl)cc3[nH]ncc23)CCCCC1 (centres unmarked) [Compound P-0145, (6-chloro-1H-indazol-4-yl)(1-methylcyclohexyl)methanol]"
> 10 µM,0.0001 to 10 µM,0.0001 to 10 µM,0.0001 to 10 µM,"OC(c1cc(Cl)cc2[nH]ncc12)C12CCC(CC1)CC2 (centres unmarked) [Compound P-0146, bicyclo[2.2.2]octan-1-yl(6-chloro-1H-indazol-4-yl)methanol]"
0.0001 to 10 µM,0.0001 to 10 µM,0.0001 to 10 µM,0.0001 to 10 µM,"CCC(=O)N1CCC(C(F)(F)C(O)c2cc(Cl)cc3cn[nH]c23)CC1 (stereo not drawn) [Compound P-0147, 1-(4-(2-(5-chloro-1H-indazol-7-yl)-1,1-difluoro-2-hydroxyethyl)piperidin-1-yl)propan-l-one]"
0.0001 to 10 µM,0.0001 to 10 µM,0.0001 to 10 µM,0.0001 to 10 µM,"CC(C)CC(=O)N1CCC(C(F)(F)C(O)c2cc(Cl)cc3cn[nH]c23)CC1 (stereo not drawn) [Compound P-0148, 1-(4-(2-(5-chloro-1H-indazol-7-yl)-1,1-difluoro-2-hydroxyethyl)piperidin-l-yl)-3-methylbutan-1-one]"
0.0001 to 10 µM,0.0001 to 10 µM,0.0001 to 10 µM,0.0001 to 10 µM,"O=C(CC1CC1)N1CCC(C(F)(F)C(O)c2cc(Cl)cc3cn[nH]c23)CC1 (stereo not drawn) [Compound P-0149, 1-(4-(2-(5-chloro-1H-indazol-7-yl)-1,1-difluoro-2-hydroxyethyl)piperidin-l-yl)-2-cyclopropylethan-1-one]"
0.0001 to 10 µM,0.0001 to 10 µM,0.0001 to 10 µM,0.0001 to 10 µM,"O=C(Nc1ccccc1)N1CCC(C(F)(F)C(O)c2cc(Cl)cc3cn[nH]c23)CC1 (centres unmarked) [Compound P-0150, 4-(2-(5-chloro-1H-indazol-7-yl)-1,1-difluoro-2-hydroxyethyl)-N-phenylpiperidine-1-carboxamide]"
0.0001 to 10 µM,0.0001 to 10 µM,0.0001 to 10 µM,0.0001 to 10 µM,"O=C(Nc1ccc(F)cc1)N1CCC(C(F)(F)C(O)c2cc(Cl)cc3cn[nH]c23)CC1 (centres unmarked) [Compound P-0151, 4-(2-(5-chloro-1H-indazol-7-yl)-1,1-difluoro-2-hydroxyethyl)-N-(4-fluorophenyl)piperidine-1-carboxamide]"
0.0001 to 10 µM,0.0001 to 10 µM,0.0001 to 10 µM,0.0001 to 10 µM,"O=C(Nc1cccc(F)c1)N1CCC(C(F)(F)C(O)c2cc(Cl)cc3cn[nH]c23)CC1 (centres unmarked) [Compound P-0152, 4-(2-(5-chloro-1H-indazol-7-yl)-1,1-difluoro-2-hydroxyethyl)-N-(3-fluorophenyl)piperidine-1-carboxamide]"
0.0001 to 10 µM,0.0001 to 10 µM,0.0001 to 10 µM,0.0001 to 10 µM,"O=C(Nc1ccc(C(F)(F)F)cc1)N1CCC(C(F)(F)C(O)c2cc(Cl)cc3cn[nH]c23)CC1 (centres unmarked) [Compound P-0153, 4-(2-(5-chloro-1H-indazol-7-yl)-1,1-difluoro-2-hydroxyethyl)-N-(4-(trifluoromethyl)phenyl)piperidine-1-carboxamide]"
0.0001 to 10 µM,0.0001 to 10 µM,0.0001 to 10 µM,0.0001 to 10 µM,"O=C(Nc1cccc(C(F)(F)F)c1)N1CCC(C(F)(F)C(O)c2cc(Cl)cc3cn[nH]c23)CC1 (centres unmarked) [Compound P-0154, 4-(2-(5-chloro-1H-indazol-7-yl)-1,1-difluoro-2-hydroxyethyl)-N-(3-(trifluoromethyl)phenyl)piperidine-1-carboxamide]"
0.0001 to 10 µM,0.0001 to 10 µM,0.0001 to 10 µM,0.0001 to 10 µM,"COC(=O)N1CCC(C2(C(O)c3cc(Cl)cc4cn[nH]c34)CC2)CC1 (centres unmarked) [Compound P-0155, methyl 4-(1-((5-chloro-1H-indazol-7-yl)(hydroxy)methyl)cyclopropyl)piperidine-1-carboxylate]"
0.0001 to 10 µM,0.0001 to 10 µM,0.0001 to 10 µM,0.0001 to 10 µM,"NC(=O)N1CCC(C2(C(O)c3cc(Cl)cc4cn[nH]c34)CC2)CC1 (centres unmarked) [Compound P-0156, 4-(1-((5-chloro-1H-indazol-7-yl)(hydroxy)methyl)cyclopropyl)piperidine-1-carboxamide]"
0.0001 to 10 µM,0.0001 to 10 µM,0.0001 to 10 µM,0.0001 to 10 µM,"O=C(Nc1ccc(F)cc1)N1CCC(C2(C(O)c3cc(Cl)cc4cn[nH]c34)CC2)CC1 (centres unmarked) [Compound P-0157, 4-(1-((5-chloro-1H-indazol-7-yl)(hydroxy)methyl)cyclopropyl)-N-(4-fluorophenyl)piperidine-1-carboxamide]"
0.0001 to 10 µM,0.0001 to 10 µM,0.0001 to 10 µM,0.0001 to 10 µM,"CS(=O)(=O)N1CCC(C2(C(O)c3cc(Cl)cc4cn[nH]c34)CC2)CC1 (centres unmarked) [Compound P-0158, (5-chloro-1H-indazol-7-yl)(1-(1-(methylsulfonyl)piperidin-4-yl)cyclopropyl)methanol]"
0.0001 to 10 µM,0.0001 to 10 µM,0.0001 to 10 µM,0.0001 to 10 µM,"CC(=O)N1CCC(C2(C(O)c3c(F)c(Cl)cc4cn[nH]c34)CC2)CC1 (stereo not drawn) [Compound P-0159, 1-(4-(1-((5-chloro-6-fluoro-1H-indazol-7-yl)(hydroxy)methyl)cyclopropyl)piperidin-1-yl)ethan-l-one]"
0.0001 to 10 µM,0.0001 to 10 µM,0.0001 to 10 µM,0.0001 to 10 µM,"COC(=O)N1CCC(C2(C(O)c3c(F)c(Cl)cc4cn[nH]c34)CC2)CC1 (centres unmarked) [Compound P-0160, methyl 4-(1-((5-chloro-6-fluoro-1H-indazol-7-yl)(hydroxy)methyl)cyclopropyl)piperidine-1-carboxylate]"
0.0001 to 10 µM,0.0001 to 10 µM,0.0001 to 10 µM,0.0001 to 10 µM,"NC(=O)N1CCC(C2(C(O)c3c(F)c(Cl)cc4cn[nH]c34)CC2)CC1 (centres unmarked) [Compound P-0161, 4-(1-((5-chloro-6-fluoro-1H-indazol-7-yl)(hydroxy)methyl)cyclopropyl)piperidine-1-carboxamide]"
0.0001 to 10 µM,0.0001 to 10 µM,0.0001 to 10 µM,0.0001 to 10 µM,"CNC(=O)N1CCC(C2(C(O)c3c(F)c(Cl)cc4cn[nH]c34)CC2)CC1 (centres unmarked) [Compound P-0162, 4-(1-((5-chloro-6-fluoro-1H-indazol-7-yl)(hydroxy)methyl)cyclopropyl)-N-methylpiperidine-1-carboxamide]"
